According to US4532240A, “Diaminopyrimidines” (Warner-Lambert Company, priority 1983, dated 1985):
Several values for one entry are separate records, joined by “and”; a condition that tells them apart may be missing. Equal values may be shown once. Where a name gives a salt, the structure may show the parent alone. Blank lines part the entries; values can stand above or below the compound they belong to.

How the values were obtained:
[1] = system: HCT-8 (human colon adenocarcinoma) cells; experiment: In vitro activity against HCT-8 human colon adenocarcinoma cells; assay type: cell-based; details: HCT-8, 60-65 hours with compound, 37° C., read-out: ID50 against human colon adenocarcinoma
Method: HCT-8 (human colon adenocarcinoma) cells are trypsinized using Trypsin-EDTA. A single cell suspension is achieved by passing the cells through a 26 gauge needle with a 20 cc syringe. A cell suspension is prepared using RPMI 1640+10% FCS+50 μg/ml garamycin with a cell concentration of approximately 30,000 cells/ml. The cell suspension is dispensed in Linbro 24-well plates; 1 ml/well. The plates are incubated for approximately 48 hours at 37° C. in a 5% CO2 atmosphere. At this time test compounds are added in the appropriate concentration. Five μl of the 200 μg/ml stock solution is added to each well in a primary test. Ten μl of the appropriate dilution is added to each well for a titration test. The plates are reincubated an additional 60-65 hours at 37° C. in a 5% CO2 atmosphere. The test is read by lysing the cells using a mix of cationic surfactant, glacial acetic acid and sodium chloride. […] of the lysed cell suspension from each well is added to 8 ml of diluent. Each sample is read on the Coulter counter (ZBI model). The activity of each sample is measured as a percentage of the controls and the data is reported as ID50, that is the molar quantity of drug required to kill 50% of the tumor cells.

L1210 cells = experiment: In vitro antitumor screening on L1210 murine leukemia cell line (growth, Coulter counter); assay type: cell-based; details: Mus musculus, L1210, 72 h; three days, 37° C., 5% CO2; read-out: L1210 Leukemia in vitro ID50
Method: L1210 cells, a murine leukemia cell line, were grown in RPMI 1640 supplemented with 5% fetal bovine serum and gentamicin (50 μg/ml).
Drug dilutions were prepared in the appropriate solvent and 20 μl of each dilution were added to 24-well Linbro tissue culture plates, followed by the addition of M 2.0 ml of cell suspension containing 3×10^4cells per ml. Solvent and medium controls were included in each test. After incubation at 37° C. for three days in 5% CO2, the contents of each well were removed and the cells counted in a ZBI Coulter counter. Percent growth was calculated relative to the controls and the levels of drug activity were expressed as ID50 in moles per liter using probit paper.

B. catarrhalis = experiment: Antibacterial disk zone of inhibition, B. catarrhalis; assay type: cell-based, Branhamella catarrhalis 03596; details: Moraxella catarrhalis; 0.01 mg/ml; read-out: Inhibition Zone diameter
Method: (§1) Vegetative bacterial isolates are maintained on agar slants or in liquid media, hereby designated as inoculum media. The cultures are transferred at regular intervals in such media. (See Table IV for the corresponding inoculum media of each culture.) The organisms are generally transferred either onto agar slants or into liquid inoculum media and incubated at 37° C. (at 28° C. with Xanthomonas sp.) overnight (18-20 hours).
(§2) The microbial cells from the overnight agar slants are then scraped off and suspended in saline solution (0.85% NaCl). The microbial concentrations are adjusted to a light transmission of 8.6% using a PerkinElmer Model 35 spectrophotometer (550 nm). For the organisms that are maintained in liquid media, one of two procedures is followed: (1) the culture suspension is first centrifuged at 5000 rpm for five minutes. The pellet is resuspended in 0.85% saline to 8.6% light transmittancy; (2) an aliquot of the culture suspension is to be added directly to the assay medium.
(§3) A given molten-agar assay medium, maintained in a flask at approximately 45° C., is inoculated with 0.16-10 ml of an appropriate cell or spore suspension per 100 ml of medium. Fifty ml of the inoculated medium is poured into a Bio-Assay dish (A/S Nunc; Gibco Laboratories Catalog Number 240835) and spread evenly across the bottom, then allowed to solidify at room temperature. Each agar dish is inverted and refrigerated until used.
(§4) The compounds or samples to be tested are dissolved in suitable solvents, e.g., alcohols, dimethylsulfoxide, or N,N-dimethylformamide. The samples are generally dissolved so that the final concentration of the solvent is <10%.* The compounds are tested at different concentrations: 3,000; 1,000; 500; 100; and 10 mcg/ml. Paper discs (12.7 mm diameter) saturated with a given concentration of test compound are placed onto the seeded agar dishes with a pair of forceps.
(§5) The disked agar dishes are incubated at 37° C. (28° C. for Xanthamonas sp.) for 18-20 hours. Active compounds show a zone of inhibition around the disc. The diameter of the zone is measured in mm. The zone diameter of active compounds ranges from a minimum of 13.5 mm to as high as 60 mm. The size of the zone diameter generally reflects the activity of the compound: the larger the zone the greater the activity.

S. lutea = experiment: Antibacterial disk zone of inhibition, S. lutea (as headed); assay type: cell-based, Micrococcus luteus 05064; details: Micrococcus luteus, read-out: Inhibition Zone diameter
Method: as §1, §2, §3, §4, §5

M. faecalis = experiment: Antibacterial disk zone of inhibition, M. faecalis (as headed); assay type: cell-based, Streptococcus faecalis 05045; details: Enterococcus faecalis, read-out: Inhibition Zone diameter
Method: as §1, §2, §3, §4, §5

X. phaseoli = experiment: Antibacterial disk zone of inhibition, X. phaseoli; assay type: cell-based, Xanthomonas phascoli 06002; details: Xanthomonas; 3.0 mg/ml; read-out: Inhibition Zone diameter
Method: as §1, §2, §3, §4, §5

B. subtilis = experiment: Antibacterial disk zone of inhibition, B. subtilis; assay type: cell-based, Bacillus subtilis 04555; details: Bacillus subtilis, read-out: Inhibition Zone diameter; for zone of inhibition at 100 µg/mL: 0.1 mg/ml
Method: as §1, §2
Isolate spore suspensions (Bacillus sp.) are maintained at 4° C. These suspensions serve as the inoculum media for assays.
as §3, §4, §5

P388 Leukemia = experiment: In vivo lymphocytic leukemia P388 test in mice; design: species or system CD2 F1 mice; details: intraperitoneal, two single doses four days apart
Method: The in vivo lymphocytic leukemia P388 test is carried out using the test system of the United States National Cancer Institute. The animals used are either male or female CD2 F1 mice. There are six to seven animals per test group. The tumor transplant is by intraperitoneal injection of dilute ascitic fluid containing cells of lymphocytic leukemia P388. The test compounds are administered intraperitoneally in two single doses with a four-day interval between doses at various dose levels following tumor inoculation. The animals are weighed and survivors are recorded on a regular basis for 30 days. A ratio of survival time for treated (T)/control (C) animals is calculated. The criterion for efficacy is T/C×100>125%. The positive control compound in this test is 5-fluorouracil. See Cancer Chemotherapy Reports, Part 3, 3, 1 (1972) for a comprehensive discussion of the protocol.

Structure (SMILES): CCc1nc(N)nc(N)c1N1CCN(c2ccc(C(=O)NC(CCC(=O)O)C(=O)O)cc2)CC1 (stereo not drawn) [drawing 16]
IC50 [1]: 120 nM

IC50 [1]: 350 nM
Structure (SMILES): Cc1nc(N)nc(N)c1N1CCN(c2ccc(Cl)cc2)CC1 [Example 21, 5-[4-(4-chlorophenyl)-1-piperazinyl]-6-methyl-2,4-pyrimidinediamine]
IC50 (L1210 cells): 28 nM

Structure (SMILES): Cc1nc(N)nc(N)c1N1CCN(c2ccc(C(=O)N[C@@H](CCC(=O)O)C(=O)O)cc2)CC1 [drawing 21]
zone of inhibition at 10 µg/mL (B. catarrhalis): 25 mm | zone of inhibition at 3000 µg/mL (S. lutea; 3.0 mg/ml): 0 mm | zone of inhibition at 3000 µg/mL (M. faecalis; 3.0 mg/ml): 0 mm | zone of inhibition at 3000 µg/mL (X. phaseoli): 0 mm | zone of inhibition at 10 µg/mL (B. subtilis; 0.01 mg/ml): 22 mm

Structure (SMILES): CCOC(=O)CCC(NC(=O)c1ccc(N2CCN(c3c(N)nc(N)nc3CC)CC2)cc1)C(=O)OCC (stereo not drawn) [drawing 15]
IC50 [1]: 26 nM

Structure (SMILES): CCCc1nc(N)nc(N)c1N1CCN(c2ccc(C(=O)NC(CCC(=O)O)C(=O)O)cc2)CC1 (stereo not drawn) [drawing 13]
IC50 (L1210 cells): 7.5 nM

IC50 [1]: 120 nM
Structure (SMILES): CCCc1nc(N)nc(N)c1N1CCN(c2ccc(C#N)cc2)CC1 [Example 14, 5-[4-(4-cyanophenyl)-1-piperazinyl]-6-propyl-2,4-pyrimidinediamine]
IC50 (L1210 cells): 8.9 nM

Structure (SMILES): CCOC(=O)CCC(NC(=O)c1ccc(N2CCN(c3c(N)nc(N)nc3CC)CC2)cc1)C(=O)OCC (stereo not drawn) [drawing 19]
T/C × 100 (P388 Leukemia; 6.25 mg/kg): 163% | T/C × 100 (P388 Leukemia; 12.5 mg/kg): 183% | T/C × 100 (P388 Leukemia; 25 mg/kg): 241% | survival rate after 30 days (P388 Leukemia; 25 mg/kg): 2/6 | T/C × 100 (P388 Leukemia; 50 mg/kg): 258% | survival rate after 30 days (P388 Leukemia; 50 mg/kg): 5/6

Structure (SMILES): Cc1nc(N)nc(N)c1N1CCN(c2ccccc2)CC1 [Example 20, 6-Methyl-5-(4-phenyl-1-piperazinyl)-2,4-pyrimidinediamine, hydrochloride (5:1)]
IC50 (L1210 cells): 150 nM

Structure (SMILES): CCCc1nc(N)nc(N)c1N1CCN(c2ccc(C(=O)NC(CCC(=O)O)C(=O)O)cc2)CC1 (stereo not drawn) [drawing 17]
IC50 [1]: 85 nM

IC50 [1]: 67 nM
Structure (SMILES): CNC(=O)c1ccc(N2CCN(c3c(C)nc(N)nc3N)CC2)cc1 [Example 7, 4-[4-(2,4-Diamino-6-methyl-5-pyrimidinyl)-1-piperazinyl]-N-methyl benzamide, hydrate (100:45)]
IC50 (L1210 cells): 2.5 nM

IC50 [1]: > 1000 nM
Structure (SMILES): Cc1nc(N)nc(N)c1N1CCN(c2ccc([N+](=O)[O-])cc2)CC1 [Example 4, 6-Methyl-5-[4-(4-nitrophenyl)-1-piperazinyl]-2,4-pyrimidinediamine, hydrate (10:1)]
IC50 (L1210 cells): 15 nM

Structure (SMILES): CCOC(=O)CCC(NC(=O)c1ccc(N2CCN(c3c(N)nc(N)nc3CC)CC2)cc1)C(=O)OCC (stereo not drawn) [drawing 22]
zone of inhibition at 10 µg/mL (B. catarrhalis): 20 mm | zone of inhibition at 10 µg/mL (S. lutea; 0.01 mg/ml): 19 mm | zone of inhibition at 10 µg/mL (M. faecalis; 0.01 mg/ml): 15 mm | zone of inhibition at 3000 µg/mL (X. phaseoli): 3 mm | zone of inhibition at 100 µg/mL (B. subtilis): 19 mm

Structure (SMILES): Cc1nc(N)nc(N)c1N1CCN(c2ccc(N)cc2)CC1 [Example 22]
IC50 (L1210 cells): 80 nM

Structure (SMILES): CCOC(=O)CCC(NC(=O)c1ccc(N2CCN(c3c(N)nc(N)nc3CC)CC2)cc1)C(=O)OCC (stereo not drawn) [drawing 10]
IC50 (L1210 cells): 3.2 nM

IC50 [1]: 89 nM
Structure (SMILES): CCc1nc(N)nc(N)c1N1CCN(c2ccc(C#N)cc2)CC1 [Example 10, 5-[4-(4-cyanophenyl)-1-piperazinyl]-6-ethyl-2,4-pyrimidinediamine]
T/C × 100 (P388 Leukemia; 50 mg/kg): 126% | IC50 (L1210 cells): 7.7 nM

Structure (SMILES): CCc1nc(N)nc(N)c1N1CCN(c2ccc(C(=O)NC(CCC(=O)O)C(=O)O)cc2)CC1 (stereo not drawn) [drawing 23]
zone of inhibition at 10 µg/mL (B. catarrhalis): 14 mm | zone of inhibition at 500 µg/mL (S. lutea; 0.5 mg/ml): 14 mm | zone of inhibition at 100 µg/mL (M. faecalis; 0.1 mg/ml): 14 mm | zone of inhibition at 3000 µg/mL (X. phaseoli): 15 mm | zone of inhibition at 100 µg/mL (B. subtilis): 20 mm

IC50 [1]: 800 nM
Structure (SMILES): COC(=O)CNC(=O)c1ccc(N2CCN(c3c(C)nc(N)nc3N)CC2)cc1 [Example 8, N-[4-[4-(2,4-Diamino-6-methyl-5-pyrimidinyl)-1-piperazinyl]benzoyl]glycine,methyl ester]
IC50 (L1210 cells): 17 nM

Structure (SMILES): CCc1nc(N)nc(N)c1N1CCN(c2ccc(C(=O)NC(CCC(=O)O)C(=O)O)cc2)CC1 (stereo not drawn) [drawing 11]
IC50 (L1210 cells): 2000 nM

Structure (SMILES): Cc1nc(N)nc(N)c1N1CCN(c2ccc(C(=O)O)cc2)CC1.Cl [Example 1, 4-[4-(2,4-Diamino-6-methyl-5-pyrimidinyl)-1-piperazinyl]benzoic acid hydrochloride]
T/C × 100 (P388 Leukemia; 6.25 mg/kg, listed as CH3, H, H, 4-CO2 H, hydrochloride): 141% and 146% | T/C × 100 (P388 Leukemia; 12.5 mg/kg, listed as CH3, H, H, 4-CO2 H, hydrochloride): 179% and 227% | T/C × 100 (P388 Leukemia; 25 mg/kg): 137% | T/C × 100 (P388 Leukemia; 50 mg/kg): 258% | survival rate after 30 days (P388 Leukemia; 50 mg/kg): 3/6

IC50 [1]: 49 nM
Structure (SMILES): CCOC(=O)c1ccc(N2CCN(c3c(C)nc(N)nc3N)CC2)cc1 [Example 6, 4-[4-(2,4-Diamino-6-methyl-5-pyrimidinyl)-1-piperazinyl]benzoic acid, ethyl ester]
IC50 (L1210 cells): 5 nM

Structure (SMILES): Cc1nc(N)nc(N)c1N1CCN(c2ccc(C(=O)N[C@@H](CCC(=O)O)C(=O)O)cc2)CC1 [Example 3, N-[4-[4-(2,4-diamino-6-methyl-5-pyrimidinyl)-1-piperazinyl]benzoyl]-L-glutamic acid]
T/C × 100 (P388 Leukemia; 6.25 mg/kg, listed as CH3, H, H, 4-CONHCH(CO2 H)CH2 CH2 CO2 H): 144% and 137% | T/C × 100 (P388 Leukemia; 12.5 mg/kg, listed as CH3, H, H, 4-CONHCH(CO2 H)CH2 CH2 CO2 H): 155% and 168% | T/C × 100 (P388 Leukemia; 25 mg/kg, listed as CH3, H, H, 4-CONHCH(CO2 H)CH2 CH2 CO2 H): 172% and 167% | T/C × 100 (P388 Leukemia; 50 mg/kg): 222% | T/C × 100 (P388 Leukemia; 50 mg/kg, listed as CH3, H, H, 4-CONHCH(CO2 H)CH2 CH2 CO2 H): 188%
